Assays:
[1] = Hydrate stability: drying at 110° C. and re-exposure to 75% relative humidity at 37° C.; assay type: physicochemical
Description: The carvedilol dihydrogen phosphate monohydrate prepared by the present processes is dried till constant weight for 4-10 hours at 40-45° C. under vacuum to obtain carvedilol dihydrogen phosphate monohydrate having bound water content in the range of 3.0-4.0% wt/wt; the theoretical moisture content for carvedilol dihydrogen phosphate monohydrate is 3.54% wt/wt. Further, the bound water content was removed by drying the material at 110° C. till the moisture content below 0.5%. The original moisture content was regained after about 10-15 hours when exposed to 75% relative humidity at 37° C. (in air).

[2] = Dissolution study of capsule formulation (USP Type 1); assay type: physicochemical; conditions: 0.1 N hydrochloric acid; for % Dissolved: 100 rpm
Description: The dissolution rate of carvedilol dihydrogen phosphate monohydrate as a capsule formulation was compared with that of carvedilol phosphate hemihydrate similarly prepared.
The samples for the dissolution study were prepared as follows:
Carvedilol phosphate, 25.0 mg, was accurately weighed along with lactose and other fillers. The mix was filled inside a colorless gelatin capsule shell, size #2. Six such capsules were subjected to dissolution studies, each for the monohydrate and hemi-hydrate material.
The intrinsic solubility of the monohydrate form versus the hemihydrate form of carvedilol is done using the general guidelines for characterizing the dissolution rate as per the United States Pharmacopoeia.
The dissolution conditions were:
Medium: 0.1 N hydrochloric acid, 900 ml
Speed of rotations: 100 per minute.
Temp: 37 degree±0.05 degrees.
The percent dissolved: was determined by UV spectrophotometry at a wavelength of 280 nm.

[3] = 10 min, 25.0 mg capsule, 900 ml, 37 degree
[4] = 20 min, 25.0 mg capsule, 900 ml, 37 degree
[5] = 30 min, 25.0 mg capsule, 900 ml, 37 degree
[6] = 45 min, 25.0 mg capsule, 900 ml, 37 degree
[7] = 60 min, 25.0 mg capsule, 900 ml, 37 degree

Molecule | Time to regain original moisture content ([1]; after drying at 110° C. to moisture below 0.5%, exposed to 75% relative humidity at 37° C. (in air)) | Stability of hydrate form ([1]; drying at 110° C., then 75% relative humidity at 37° C. (in air)) | Time to complete dissolution ([2]; 25.0 mg capsule, 900 ml, 37 degree) | % Dissolved [2, 3] | % Dissolved [2, 4] | % Dissolved [2, 5] | % Dissolved [2, 6] | % Dissolved [2, 7] | % Dissolved ([2]; 90 min, 25.0 mg capsule, 900 ml, 37 degree) | Rate of dissolution compared with hemihydrate form ([2]; capsule) | % Dissolved ([2]; 90 min, 25.0 mg capsule, 900 ml, 37 degree, Phosphate Hemihydrate) | % Dissolved ([2]; 90 min, 25.0 mg capsule, 900 ml, 37 degree, listed as hemihydrate form, Phosphate Hemihydrate)
COc1ccccc1OCCNCC(O)COc1cccc2[nH]c3ccccc3c12.O=P(O)(O)O (centres unmarked) [Monohydrate form, 1-(9H-carbazol-4-yloxy)-3-[[2-(2-methoxyphenoxy)ethyl]amino]-propan-2-ol] | 10 to 15 h | stable and does not convert into the dihydrate or hemihydrate form | ≤ 90 min | 46.20% | 68.28% | 82.45% | 95.89% | 96.81% | 101.55% | faster rate of dissolution than the hemihydrate form | – | –
Carvedilol Dihydrogen Phosphate Hemihydrate [Hemihydrate form, reference compound] | – | – | – | 45.95% | 63.75% | 68.43% | 75.99% | 82.68% | – | – | 88.95% | less than 90%
